Test results reported in patent US20060069132A1, “Azolecarboxamide herbicides” (priority 2004, published 2006).

Key:
corn = assay: Test B pre-/postemergence herbicide test; assay type: in vivo, Zea mays
Summary of the method: (§1)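 Flooded paddy rice and barnyardgrass were treated at the 2-leaf stage; upland plantings received compound either on sown seed or on 1- to 4-leaf seedlings. All were kept 13–15 days in a greenhouse and scored visually, 0–100, relative to untreated plants.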

blackgrass = assay: Test B postemergence herbicide test; assay type: in vivo, Alopecurus myosuroides; details: scale 0 (no effect) to 100 (complete control)
Summary of the method: (§2)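 Plants grow to 1- to 4-leaf stage (2–18 cm) for postemergence spraying, or to 2-leaf stage for the paddy test. Formulated compound is applied. Greenhouse holding lasts 13–15 days. Response is scored visually relative to controls, 0 no effect to 100 complete control; a dash means no result.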

giant foxtail = assay: Test B pre-/postemergence herbicide test; assay type: in vivo, Setaria faberi
Summary of the method: as §1

rice [1] = assay: Test C flooded paddy test; assay type: in vivo, Oryza sativa
Summary of the method: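 Plants were grown to the 1- to 4-leaf stage (2–18 cm) and then treated postemergence, or grown to the 2-leaf stage for the flooded paddy test. They were held in a greenhouse for 12 to 14 days and then scored by eye against controls, where 0 is no effect and 100 is complete control.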

rice [2] = assay: Test B flooded paddy test; assay type: in vivo, Oryza sativa; details: 1000 g ai/ha, visual rating, scale 0 to 100 (0 no effect, 100 complete control), 13 to 15 days
Summary of the method: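 After treating 2-leaf paddy plants or 2–18 cm postemergence plants (1 to 4 leaves) with formulated chemical, researchers kept them in a greenhouse for 13–15 days. Effects were judged visually versus controls: 0 indicates none, 100 total control.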

large crabgrass = assay: Test B pre-/postemergence herbicide test; assay type: in vivo, Digitaria sanguinalis
Summary of the method: as §1

[3] = test system: small flower umbrella sedge; assay: Test B flooded paddy test; assay type: in vivo, Cyperus difformis; details: 1000 g ai/ha, visual rating, scale 0 to 100 (0 no effect, 100 complete control), 13 to 15 days
Summary of the method: as §2

barnyardgrass [4] = assay: Test C flooded paddy test; assay type: in vivo, Echinochloa crus-galli
Summary of the method: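 Greenhouse test with a 12–14 day hold after application and visual comparison with controls. Emerged plants were 1- to 4-leaf stage (2–18 cm) when sprayed postemergence, and the paddy barnyardgrass was at 2 leaves under flooded conditions. 100 = complete control.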

ducksalad [5] = assay: Test C flooded paddy test; assay type: in vivo, Heteranthera limosa
wild oat = assay: Test B postemergence herbicide test; assay type: in vivo, Avena fatua; details: scale 0 (no effect) to 100 (complete control)
Summary of the method: (§3)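 Formulated test chemicals went onto postemergence plants measuring 2 to 18 cm, at one to four leaves. For the paddy assay, species had reached two leaves. Scoring took place 13–15 days later by eye, relative to untreated plants, using 0 for no effect up to 100 for full control.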

rice [6] = assay: Test B pre-/postemergence herbicide test; assay type: in vivo, Oryza sativa; details: preemergence
Summary of the method: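 Evaluation is visual, comparing treated with control plants on a scale where 0 means no effect and 100 means full control. Treatments were preemergence, or postemergence on seedlings 2–18 cm tall, and held 13–15 days in the greenhouse.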

morningglory = assay: Test B pre-/postemergence herbicide test; assay type: in vivo, Ipomoea coccinea
Summary of the method: (§4)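 Species tested were Echinochloa crus-galli, Ipomoea coccinea, Xanthium strumarium and Oryza sativa, treated both before emergence and at the 1- to 4-leaf stage; rice and barnyardgrass were also tested under flooding at 2 leaves. Greenhouse incubation lasted 13–15 days before visual 0–100 scoring.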

ducksalad [7] = assay: Test B flooded paddy test; assay type: in vivo, Heteranthera limosa; details: 1000 g ai/ha, visual rating, scale 0 to 100 (0 no effect, 100 complete control), 13 to 15 days
Summary of the method: as §2

cocklebur = assay: Test B pre-/postemergence herbicide test; assay type: in vivo, Xanthium strumarium
Summary of the method: as §4

Surinam grass = assay: Test B pre-/postemergence herbicide test; assay type: in vivo, Urochloa decumbens
Summary of the method: as §1

barnyardgrass [8] = assay: Test B flooded paddy test; assay type: in vivo, Echinochloa crus-galli; details: 1000 g ai/ha, visual rating, scale 0 to 100 (0 no effect, 100 complete control), 13 to 15 days
Summary of the method: as §2

pigweed = assay: Test B pre-/postemergence herbicide test; assay type: in vivo, Amaranthus retroflexus
Summary of the method: as §1

lambsquarters = assay: Test B pre-/postemergence herbicide test; assay type: in vivo, Chenopodium album
Summary of the method: as §1

wheat = assay: Test B postemergence herbicide test; assay type: in vivo, Triticum aestivum; set-up: key to Wheat plant response rating: 0 = no effect, 100 = complete control; details: scale 0 (no effect) to 100 (complete control)
Summary of the method: as §3

[9] = test system: smallflower umbrella sedge; assay: Test C flooded paddy test; assay type: in vivo, Cyperus difformis
barnyardgrass [10] = assay: Test B pre-/postemergence herbicide test; assay type: in vivo, Echinochloa crus-galli
Summary of the method: as §4

velvetleaf = assay: Test B pre-/postemergence herbicide test; assay type: in vivo, Abutilon theophrasti
Summary of the method: as §1

[11] = 500 g ai/ha, visual rating 0-100, 0 no effect, 100 complete control, preemergence
[12] = Postemergence, 500 g ai/ha, visual rating after 13 to 15 days, scale 0 (no effect) to 100 (complete control)
[13] = postemergence, 125 g ai/ha, visual rating, scale 0 (no effect) to 100 (complete control)
[14] = preemergence, 125 g ai/ha, 0 to 100 scale, 0 is no effect, 100 is complete control
[15] = Postemergence, 500 g ai/ha, visual rating after 13 to 15 days
[16] = postemergence, 125 g ai/ha, visual rating
[17] = 62 g ai/ha, scale 0 to 100 (0 no effect, 100 complete control)
[18] = 125 g ai/ha, scale of 0 to 100, 0 is no effect, 100 is complete control
[19] = 250 g ai/ha, scale of 0 to 100, 0 is no effect, 100 is complete control
[20] = 500 g ai/ha, visual rating after 12 to 14 days, scale 0 to 100 (0 no effect, 100 complete control)

CCn1nc(C(C)(C)C)cc1C(=O)Nc1ccc(OC)c(C(=O)OC(C)C)c1 [Compound 101]
20: Plant response rating, Corn (corn; [14]) | Blackgrass plant response rating (blackgrass; [16]) | Foxtail, Giant plant response rating (giant foxtail; [13]) | Plant response rating, Foxtail, Giant (giant foxtail; [14]) | Plant response rating, Crabgrass, Large (large crabgrass; [12]) | Barnyardgrass plant response rating (barnyardgrass [4]; [18]) | Cocklebur plant response rating (cocklebur; [13]) | Plant response rating, Surinam Grass (Surinam grass; [12]) | Plant response rating, Wheat (wheat; [15]) | Sedge, Umbrella plant response rating [9, 17] | Plant response rating, Barnyardgrass (barnyardgrass [10]; [12]) | Velvetleaf plant response rating (velvetleaf; [13]) | Plant response rating, Velvetleaf (velvetleaf; [14])
10: Corn plant response rating (corn; [13]) | Crabgrass, Large plant response rating (large crabgrass; [13]) | Plant response rating, Morningglory (morningglory; [11]) | Plant response rating, Morningglory (morningglory; [12]) | Morningglory plant response rating (morningglory; [13]) | Plant response rating, Morningglory (morningglory; [14]) | Surinam Grass plant response rating (Surinam grass; [13]) | Plant response rating, Surinam Grass (Surinam grass; [14]) | Wheat plant response rating (wheat; [16]) | Barnyardgrass plant response rating (barnyardgrass [10]; [13])
70: Barnyardgrass plant response rating (barnyardgrass [8]) | Plant response rating, Barnyardgrass (barnyardgrass [10]; [11])
90: Plant response rating, Crabgrass, Large (large crabgrass; [11]) | Ducksalad plant response rating (ducksalad [7]) | Plant response rating, Cocklebur (cocklebur; [11]) | Plant response rating, Pigweed (pigweed; [12]) | Plant response rating, Lambsquarters (lambsquarters; [12]) | Plant response rating, Sedge, Umbrella [9, 20]
60: Plant response rating, Foxtail, Giant (giant foxtail; [11])
40: Plant response rating, Corn (corn; [11]) | Plant response rating, Corn (corn; [12]) | Plant response rating, Blackgrass (blackgrass; [15]) | Ducksalad plant response rating (ducksalad [5]; [19]) | Plant response rating, Rice (rice [6]; 500 g ai/ha, visual rating 0-100, 0 no effect, 100 complete control) | Plant response rating, Barnyardgrass (barnyardgrass [10]; [14])
100: Plant response rating, Pigweed (pigweed; [11]) | Plant response rating, Pigweed (pigweed; [14]) | Plant response rating, Lambsquarters (lambsquarters; [11]) | Plant response rating, Lambsquarters (lambsquarters; [14])
50: Plant response rating, Crabgrass, Large (large crabgrass; [14]) | Plant response rating, Barnyardgrass (barnyardgrass [4]; [20]) | Plant response rating, Oat, Wild (wild oat; [15]) | Plant response rating, Velvetleaf (velvetleaf; [11])
80: Rice plant response rating (rice [2]) | Sedge, Umbrella plant response rating [3] | Plant response rating, Cocklebur (cocklebur; [12]) | Pigweed plant response rating (pigweed; [13]) | Lambsquarters plant response rating (lambsquarters; [13]) | Sedge, Umbrella plant response rating [9, 19]
25: Plant response rating, Rice (rice [1]; [20])
0: Rice plant response rating (rice [1]; [17]) | Rice plant response rating (rice [1]; [18]) | Rice plant response rating (rice [1]; [19]) | Barnyardgrass plant response rating (barnyardgrass [4]; [17]) | Ducksalad plant response rating (ducksalad [5]; [17]) | Ducksalad plant response rating (ducksalad [5]; [18]) | Plant response rating, Cocklebur (cocklebur; [14])
75: Plant response rating, Ducksalad (ducksalad [5]; [20]) | Sedge, Umbrella plant response rating [9, 18]
30: Plant response rating, Foxtail, Giant (giant foxtail; [12]) | Barnyardgrass plant response rating (barnyardgrass [4]; [19]) | Oat, Wild plant response rating (wild oat; [16]) | Plant response rating, Rice (rice [6]; 125 g ai/ha, 0 to 100 scale, 0 is no effect, 100 is complete control) | Plant response rating, Surinam Grass (Surinam grass; [11]) | Plant response rating, Velvetleaf (velvetleaf; [12])
